Results taken from US11458212B2, “Molecular imaging of cancer cells in vivo” (H. Lee Moffitt Cancer Center and Research Institute, Inc., priority 2011, dated 2022).
pEC50: −log10 of the molar value. “Also recorded” adds a separate entry of the source. Where a SMILES comes first, the peptide text is derived from it. Primed or numbered codes have the meaning given here. The star is where a group is joined. Adapalene = Adapaleneyl (acyl group from adapalene), COc1ccc(-c2ccc3cc(C(=O)*)ccc3c2)cc1C12CC3CC(CC(C3)C1)C2; Propyl(2R-PamO,3-PamO) = CCCCCCCCCCCCCCCC(=O)OC[C@H](C*)OC(=O)CCCCCCCCCCCCCCC; X2 = CCCCCCCCCCCCCCCC(=O)OCC(C*)OC(=O)CCCCCCCCCCCCCCC; X1 = CC(=O)NCCCOCCOCCOCCCNC(=O)COCC(=O)*; Palmitoyl = CCCCCCCCCCCCCCCC(=O)*; Ahx = NCCCCCC(=O)O; Dhc(Pam)2″ = lipid

What was measured:
TLR2 = TLR2 (Homo sapiens, UniProt O60603); assay: In vitro TLR2 functional bioassay (NF-κB luciferase, HEK293/hTLR2 cells); assay type: cell-based; set-up: host or cells: HEK293 stably transfected with pUNO-hTLR2, transiently transfected with the pNifty-Luc reporter; details: for pEC50: log(agonist) vs. normalized response, doses 0.01 ng/mL to 1 μg/mL, read-out: EC50; for TLR2 Agonist Activity: screened at 1 μg/mL; for fold of enhancement vs SAA at 1 μg/mL / fold of enhancement vs SAA at 10 μg/mL: compound at 1 μg/mL
Sequence of TLR2 (O60603 21-784): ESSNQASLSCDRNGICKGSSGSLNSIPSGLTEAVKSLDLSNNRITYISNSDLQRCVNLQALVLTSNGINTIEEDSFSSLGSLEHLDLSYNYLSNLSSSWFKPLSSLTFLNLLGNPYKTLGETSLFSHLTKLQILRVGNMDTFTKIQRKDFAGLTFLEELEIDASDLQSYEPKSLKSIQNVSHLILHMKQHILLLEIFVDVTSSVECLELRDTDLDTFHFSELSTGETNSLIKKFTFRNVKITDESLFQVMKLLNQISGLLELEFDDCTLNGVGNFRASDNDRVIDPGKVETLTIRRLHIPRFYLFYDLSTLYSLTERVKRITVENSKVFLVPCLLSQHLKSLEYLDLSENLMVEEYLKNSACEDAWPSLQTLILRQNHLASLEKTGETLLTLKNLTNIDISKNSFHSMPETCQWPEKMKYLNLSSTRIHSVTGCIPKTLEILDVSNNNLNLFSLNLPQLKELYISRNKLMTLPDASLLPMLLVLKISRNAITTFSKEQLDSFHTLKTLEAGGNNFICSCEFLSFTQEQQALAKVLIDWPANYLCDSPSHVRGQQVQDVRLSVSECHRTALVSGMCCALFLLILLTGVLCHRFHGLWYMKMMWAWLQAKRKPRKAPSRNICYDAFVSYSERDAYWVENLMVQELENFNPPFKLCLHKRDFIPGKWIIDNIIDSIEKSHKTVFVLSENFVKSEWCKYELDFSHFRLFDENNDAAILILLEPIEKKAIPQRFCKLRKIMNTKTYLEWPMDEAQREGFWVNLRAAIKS
Sequence of TLR2 (Q9Y2C9 32-796 partner): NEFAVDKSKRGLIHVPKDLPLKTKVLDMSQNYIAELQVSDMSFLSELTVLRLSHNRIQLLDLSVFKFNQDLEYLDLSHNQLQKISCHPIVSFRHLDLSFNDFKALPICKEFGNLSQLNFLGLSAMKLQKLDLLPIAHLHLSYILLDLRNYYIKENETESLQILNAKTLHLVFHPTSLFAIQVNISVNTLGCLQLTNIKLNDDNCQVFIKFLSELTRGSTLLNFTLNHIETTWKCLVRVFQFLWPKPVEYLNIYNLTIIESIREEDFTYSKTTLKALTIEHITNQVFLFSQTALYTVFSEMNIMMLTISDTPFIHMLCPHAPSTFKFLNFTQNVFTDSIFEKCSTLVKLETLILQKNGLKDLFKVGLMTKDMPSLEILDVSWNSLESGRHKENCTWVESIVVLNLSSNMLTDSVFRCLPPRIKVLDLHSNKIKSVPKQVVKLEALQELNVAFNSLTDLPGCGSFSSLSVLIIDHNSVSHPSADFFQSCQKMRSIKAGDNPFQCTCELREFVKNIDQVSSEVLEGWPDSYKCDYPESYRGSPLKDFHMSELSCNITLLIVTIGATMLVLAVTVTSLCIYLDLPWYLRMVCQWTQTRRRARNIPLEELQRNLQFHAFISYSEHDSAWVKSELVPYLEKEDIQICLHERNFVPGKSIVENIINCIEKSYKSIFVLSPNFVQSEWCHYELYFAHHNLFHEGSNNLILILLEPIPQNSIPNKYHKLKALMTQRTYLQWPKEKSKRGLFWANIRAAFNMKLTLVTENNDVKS
Source text: In Vitro TLR2 Functional Bioassay The in vitro TLR2 functional bioassay was developed and optimized for use in screening soluble compound libraries to identify both TLR2 agonists and antagonists. In this study, the TLR2 functional bioassay was used as a fast high throughput screening to identify TLR2 agonist ligands by measuring the inducing activity of NF-κB. HEK293/hTLR2 cells, highly overexpressing human TLR2, were used along with the parental HEK293, cells as a negative control. Cells were seeded at a density of 40,000 per well using a WellMate® Microplate dispenser (Thermo Fischer Scientific/Matrix) in black 96-well plates with opaque white wells (Perkin Elmer Wallac, Waltham, Mass.) and then incubated at 37° C. On day 2, the cells were transiently transfected with pNifty-Luc (InvivoGen), an NF-κB inducible reporter plasmid expressing the luciferase reporter gene (Zuany-Amorim, C., J., et al. Nat Rev Drug Discov, 2002. 1(10):797-807), using an optimized 4:1 ratio by volume of Fugene® HD Transfection Reagent (Roche Applied Science, Indianapolis, Ind.) to pNifty-Luc plasmid DNA (1 μg/mL). […] On day 4 after 24 hrs of peptide stimulation, luciferase induced activity by the induction of NF-κB was measured. Media was aspirated from the wells using an ELx405 Select plate washer (BioTek, Winooski, Vt.), 150 μg/mL D-luciferin (Gold Biotechnology, St. Louis, Mo.) was dispensed using the microplate dispensor; the plates were incubated at 37° C. for 5 min. The luminescence intensity was measured using the standard luminescence protocol on a Victor™ X4 plate-reader equipped with a plate stacker for readout of multiple plates at a time (PerkinElmer, Waltham, Mass.). For each in vitro TLR2 bioassay, at least three different experiments were performed in triplicate (n=3+). Data were analyzed with GraphPad Prism software and curves were generated with the appropriate nonlinear fit regression analysis.
The in vitro TLR2 functional bioassay was developed and optimized for use in high-throughput screening of soluble compound libraries to identify both TLR2 agonists and antagonists. The bioassay measures the induction of NF-κB signaling via TLR2 in HEK-293/hTLR2 cells and parental HEK-293 cells as a negative control. Cells were seeded at a density of 40,000 per well using a WellMate Microplate dispenser (Thermo Fisher Scientific/Matrix) in black 96-well plates with opaque white wells (PerkinElmer, Waltham, Mass.) and then incubated at 37° C. On day 2, the cells were transiently transfected with pNifty-Luc (InvivoGen, San Diego, Calif.), an NF-κB inducible reporter plasmid expressing the luciferase reporter gene[28] using an optimized 4:1 ratio by volume of FugeneHD Transfection Reagent (Promega, Madison, Wis.) to pNifty-Luc plasmid DNA (1 μg/mL). […] […] On day 4 after 24 h of peptide stimulation, luciferase induced activity by the induction of NF-κB was measured. Media was aspirated from the wells using an ELx405 Select CW plate washer (BioTek, Winooski, Vt.), 150 μg/mL D-luciferin (Gold Biotechnology, St. Louis, Mo.) was dispensed using the microplate dispensor; the plates were incubated at 37° C. for 5 min. The luminescence intensity was measured using the standard luminescence protocol on a Victor X4 Multilabel plate reader equipped with a plate stacker for readout of multiple plates at a time (PerkinElmer, Waltham, Mass.). […] Data were analyzed with GraphPad Prism software and curves were generated with the appropriate nonlinear fit regression analysis.

[1] = test system: Trp1455/9M-specific CD8 T cells; assay: In vivo cellular immune response assay (immune adjuvant); set-up: species or system B6 mice; details: for in vivo immune adjuvant activity (generation and persistence of antigen-specific CD8 T cells): compared with Pam2CSK4 and Pam3CSK4
Description: To assess the efficacy of T-02 as an immune adjuvant, mice were immunized i.v. with a mixture of 100 μg optimized Trp1455/9M peptide (Guevara-Patino, J. A., et al. J Clin Invest, 2006. 116(5):1382-90), 50 μg anti-CD40 mAb (Clone; FGk-45.5), and 50 μg TLR-2 peptide (T-02, Pam2CSK4, or Pam3CSK4). […] The response of tetramer+ CD8 T cells in the blood was measured on day 7, 21, and 34 by tetramer staining. For tetramer staining, peripheral blood was taken from the submandibular vein and treated briefly with ammonium chloride buffer to lyse red blood cells. Blood cells were stained with FITC-conjugated anti-MHC class II, PerCP Cy5.5-conjugated CD8a (both from eBioscience, San Diego, Calif.), and phycoerythrin-conjugated Trp1455/9M/H-2D^b tetramers (provided by the NIH tetramer Facility, Emory University, Atlanta Ga.) for 40 min in ice. Fluorescence was evaluated using a FACSCalibur™ flow cytometer (BD Biosciences) and analyzed using FlowJo software.
C57BL/6 (B6) mice 6-8 weeks old were purchased from Charles River (Wilmington, Mass.). To assess the efficacy of 10 as an immune adjuvant, B6 mice were immunized i.v. with a mixture (in a volume of 200 μl) of 100 μg optimized Trp1455/9M peptide,[10c] 50 μg anti-CD40 monoclonal antibody (Clone; FGk-45.5), and 50 μg TLR2 agonist (10, Pam2CSK4, or Pam3CSK4). […] The response of tetramer positive CD8 T cells in the blood was measured on day 7, 21 and 34 by tetramer staining. For tetramer staining, peripheral blood was taken from the submandibular vein and treated briefly with ammonium chloride buffer to lyse red blood cells. Blood cells were stained with FITC-conjugated anti-MHC class II, PerCP Cy5.5-conjugated CD8a, and phycoerythrin-conjugated Trp1455/9M/H-2D^b tetramers for 40 min in ice. Fluorescence was evaluated using a FACSCalibur flow cytometer (BD Biosciences) and analyzed using FlowJo software.

Compound: CCCCCCCCCCCCCCCC(=O)OC[C@H](CSC[C@H](NC(=O)COCC(=O)NCCCOCCOCCOCCCNC(C)=O)C(=O)NCC(=O)N[C@@H](CC(N)=O)C(=O)N[C@@H](CC(N)=O)C(=O)N[C@@H](CC(=O)O)C(=O)N[C@@H](CCC(=O)O)C(=O)N[C@@H](CO)C(=O)N[C@@H](CC(N)=O)C(=O)N[C@H](C(=O)N[C@@H](CO)C(=O)N[C@@H](Cc1ccccc1)C(=O)N[C@@H](CCCCN)C(=O)N[C@@H](CCC(=O)O)C(=O)N[C@@H](CCCCN)C(N)=O)[C@@H](C)CC)OC(=O)CCCCCCCCCCCCCCC [Compound 3] (X1-C(Propyl(2R-PamO,3-PamO))GNNDESNISFKEK-NH2)
- pEC50 (TLR2): 7.25
- TLR2 Agonist Activity (TLR2): Yes

Compound: CCCCCCCCCCCCCCCC(=O)OCC(CSCC(NC(=O)COCC(=O)NCCCOCCOCCOCCCNC(C)=O)C(=O)NC(CO)C(=O)NC(CCCNC(=N)N)C(=O)NC(Cc1ccccc1)C(=O)NC(CC(=O)O)C(=O)NC(CCC(=O)O)C(=O)NC(CC(=O)O)C(=O)NC(CC(=O)O)C(=O)NC(CC(C)C)C(=O)NC(CCC(=O)O)C(N)=O)OC(=O)CCCCCCCCCCCCCCC (centres unmarked) [Compound 8] (X1-C(X2)SRFDEDDLE-NH2; configuration not given here)
- fold of enhancement vs SAA at 1 μg/mL (TLR2): 11 fold
- fold of enhancement vs SAA at 10 μg/mL (TLR2): 4.2 fold

Compound: CCCCCCCCCCCCCCCC(=O)OC[C@H](CSC[C@H](NC(=O)COCC(=O)NCCCOCCOCCOCCCNC(C)=O)C(=O)NCC(=O)N[C@@H](CO)C(=O)N[C@@H](CCC(N)=O)C(=O)N[C@@H](CC(N)=O)C(=O)N[C@@H](CC(C)C)C(=O)N[C@@H](C)C(=O)N[C@@H](CO)C(=O)N[C@@H](CC(C)C)C(=O)N[C@@H](CCC(=O)O)C(=O)N[C@@H](CCC(=O)O)C(N)=O)OC(=O)CCCCCCCCCCCCCCC [Compound 9] (X1-C(Propyl(2R-PamO,3-PamO))GSQNLASLEE-NH2)
- fold of enhancement vs SAA at 1 μg/mL (TLR2): 13 fold
- fold of enhancement vs SAA at 10 μg/mL (TLR2): 4.8 fold
- pEC50 (TLR2): 7.11

Compound: CCCCCCCCCCCCCCCC(=O)OC[C@H](CSC[C@H](NC(=O)COCC(=O)NCCCOCCOCCOCCCNC(C)=O)C(=O)NCC(=O)NC(CO)C(=O)NCCCOCCOCCOCCCNC(=O)COCC(N)=O)OC(=O)CCCCCCCCCCCCCCC (stereo partly drawn) [Compound 10, Ac-PEGO-Dhc(Pam)2-Gly-Ser-PEGO-NH2]
- in vivo immune adjuvant activity (generation and persistence of antigen-specific CD8 T cells) [1]: stimulated the immune system by generation and persistence of antigen-specific CD8 T cells; also recorded: exhibited activity similar to the other known TLR2 agonists; also recorded: induced an in vivo immune response comparable to the currently available TLR2 synthetic agonists
- in vivo immune adjuvant activity (generation and persistence of antigen-specific CD8 T cells) ([1]; listed as T-02): exhibited similar in vivo activity comparable to the TLR-2 agonists, Pam2CSK4 and Pam3CSK4
- fluorescence of stained tetramer positive CD8 T cells ([1]; day 7): High fluorescence
- response rate of the tetramer positive CD8 T cells ([1]; day 7): 100%
- maximum amount of fluorescently stained tetramer positive CD8 T cells ([1]; day 7, peripheral blood, i.v. immunization, n=3): 49.6%
- tetramer positive CD8 T cells ([1]; day 21): 25.7%
- tetramer positive CD8 T cells ([1]; day 34): 12.7%
- fold of enhancement vs SAA at 1 μg/mL (TLR2): 14 fold
- fold of enhancement vs SAA at 10 μg/mL (TLR2): 5.2 fold

Compound: Ac-Aha-Dhc(Pam)2-Gly-Asn-Asn-Asp-Glu-Ser-Asn-Ile-Ser-Phe-Lys-Glu-Lys-NH2 ({Ac-Ahx-Dhc(Pam)2″}-GNNDESNISFKEK-NH2) [Compound 4]
- TLR2 Agonist Activity (TLR2): Yes

Compound: Ac-Aun(C11)-Dhc(Pam)2-Gly-Asn-Asn-Asp-Glu-Ser-Asn-Ile-Ser-Phe-Lys-Glu-Lys-NH2 ({Ac-Aun(C11)-Dhc(Pam)2″}-GNNDESNISFKEK-NH2) [Compound 6]
- TLR2 Agonist Activity (TLR2): Yes

Compound: Adapalene-Dhc(Pam)2-Gly-Asn-Asn-Asp-Glu-Ser-Asn-Ile-Ser-Phe-Lys-Glu-Lys-NH2 ({Adapalene-Dhc(Pam)2″}-GNNDESNISFKEK-NH2) [Compound 5]
- TLR2 Agonist Activity (TLR2): Yes

Compound: Fluorescein-Dhc(Pam)2-Gly-Asn-Asn-Asp-Glu-Ser-Asn-Ile-Ser-Phe-Lys-Glu-Lys-NH2 ({Fluorescein-Dhc(Pam)2″}-GNNDESNISFKEK-NH2) [Compound 2]
- TLR2 Agonist Activity (TLR2): Yes

Compound: Pam-Dhc(Pam)2-Gly-Asn-Asn-Asp-Glu-Ser-Asn-Ile-Ser-Phe-Lys-Glu-Lys-NH2 ({Palmitoyl-Dhc(Pam)2″}-GNNDESNISFKEK-NH2) [Compound 1]
- TLR2 Agonist Activity (TLR2): Yes

Compound: Tretinoin-Dhc(Pam)2-Gly-Asn-Asn-Asp-Glu-Ser-Asn-Ile-Ser-Phe-Lys-Glu-Lys-NH2 [Compound 7]
- TLR2 Agonist Activity (TLR2): Yes

Compound: Trp1455/9M: Trp1455/9M (TAPDNLGYM), H2 Db-optimized peptide from mouse tyrosinase-related protein-1, epitope for CD8 T cells [reference compound]
- TLR2 agonist activity of vaccine peptide (TLR2): not a TLR2 agonist
